According to the kinase profiling compilation of Christmann-Franck et al. (2016):

How the values were obtained:
Assay in all cases: SelectScreen, TR FRET
Settings in all cases: compound 5.0 µM
CHEK1 (human) = CHEK1 (human) (UniProt O14757)
ITK (human) = ITK (human) (UniProt Q08881)
MAPK14 (human) = MAPK14 (human) (UniProt Q16539)
JAK3 JH1 JH2 (human) = JAK3 JH1 JH2 (human) (UniProt P52333)
EPHA3 (human) = EPHA3 (human) (UniProt P29320)
CSNK2A1 (human) = CSNK2A1 (human) (UniProt P68400)
DAPK3 (human) = DAPK3 (human) (UniProt O43293)
AKT1 (human) = AKT1 (human) (UniProt P31749)
ERBB4 (human) = ERBB4 (human) (UniProt Q15303)
MAP4K4 (human) = MAP4K4 (human) (UniProt O95819)
AURKB (human) = AURKB (human) (UniProt Q96GD4)
BLK (human) = BLK (human) (UniProt P51451)
INSR (human) = INSR (human) (UniProt P06213)
DYRK3 (human) = DYRK3 (human) (UniProt O43781)
CSNK1G1 (human) = CSNK1G1 (human) (UniProt Q9HCP0)
CHEK2 (human) = CHEK2 (human) (UniProt O96017)
MAPKAPK3 (human) = MAPKAPK3 (human) (UniProt Q16644)
ROCK1 (human) = ROCK1 (human) (UniProt Q13464)
CSNK1G2 (human) = CSNK1G2 (human) (UniProt P78368)
PRKCB1 (human) = PRKCB1 (human) (UniProt P05771)
CAMK2A (human) = CAMK2A (human) (UniProt Q9UQM7)
[1] = system: LYN (human), P07948 [23-43 del]
TEK (human) = TEK (human) (UniProt Q02763)
PRKCE (human) = PRKCE (human) (UniProt Q02156)
CAMK1D (human) = CAMK1D (human) (UniProt Q8IU85)
PAK4 (human) = PAK4 (human) (UniProt O96013)
RPS6KA2 KD1 KD2 (human) = RPS6KA2 KD1 KD2 (human) (UniProt Q15349)
EPHA8 (human) = EPHA8 (human) (UniProt P29322)
NTRK1 (human) = NTRK1 (human) (UniProt P04629)
FER (human) = FER (human) (UniProt P16591)
SRMS (human) = SRMS (human) (UniProt Q9H3Y6)
[2] = system: PDGFRA (human), P16234 [T674I]
RPS6KA5 KD1 KD2 (human) = RPS6KA5 KD1 KD2 (human) (UniProt O75582)
SYK (human) = SYK (human) (UniProt P43405)
MAP2K2 (human) = MAP2K2 (human) (UniProt P36507)
RPS6KA3 KD1 KD2 (human) = RPS6KA3 KD1 KD2 (human) (UniProt P51812)
SGK3 (human) = SGK3 (human) (UniProt Q96BR1)
PRKCB2 (human) = PRKCB2 (human) (UniProt P05771)
MAP2K6 (human) = MAP2K6 (human) (UniProt P52564)
CSNK1G3 (human) = CSNK1G3 (human) (UniProt Q9Y6M4)
CSNK1G3 (human), sequence (Q9Y6M4 whole entry, looked up): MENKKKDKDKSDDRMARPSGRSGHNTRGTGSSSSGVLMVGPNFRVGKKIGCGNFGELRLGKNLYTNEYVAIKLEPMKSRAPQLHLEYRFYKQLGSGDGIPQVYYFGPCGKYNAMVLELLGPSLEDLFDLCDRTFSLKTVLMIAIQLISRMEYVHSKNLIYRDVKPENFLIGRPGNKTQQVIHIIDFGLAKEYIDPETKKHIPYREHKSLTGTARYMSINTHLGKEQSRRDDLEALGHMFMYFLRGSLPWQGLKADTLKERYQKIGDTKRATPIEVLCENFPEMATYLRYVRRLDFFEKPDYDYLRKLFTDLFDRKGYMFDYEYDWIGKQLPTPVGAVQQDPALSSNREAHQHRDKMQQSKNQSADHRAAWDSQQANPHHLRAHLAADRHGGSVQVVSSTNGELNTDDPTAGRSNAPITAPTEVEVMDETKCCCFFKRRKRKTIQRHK

PRKCE (human), sequence (Q02156 whole entry, looked up): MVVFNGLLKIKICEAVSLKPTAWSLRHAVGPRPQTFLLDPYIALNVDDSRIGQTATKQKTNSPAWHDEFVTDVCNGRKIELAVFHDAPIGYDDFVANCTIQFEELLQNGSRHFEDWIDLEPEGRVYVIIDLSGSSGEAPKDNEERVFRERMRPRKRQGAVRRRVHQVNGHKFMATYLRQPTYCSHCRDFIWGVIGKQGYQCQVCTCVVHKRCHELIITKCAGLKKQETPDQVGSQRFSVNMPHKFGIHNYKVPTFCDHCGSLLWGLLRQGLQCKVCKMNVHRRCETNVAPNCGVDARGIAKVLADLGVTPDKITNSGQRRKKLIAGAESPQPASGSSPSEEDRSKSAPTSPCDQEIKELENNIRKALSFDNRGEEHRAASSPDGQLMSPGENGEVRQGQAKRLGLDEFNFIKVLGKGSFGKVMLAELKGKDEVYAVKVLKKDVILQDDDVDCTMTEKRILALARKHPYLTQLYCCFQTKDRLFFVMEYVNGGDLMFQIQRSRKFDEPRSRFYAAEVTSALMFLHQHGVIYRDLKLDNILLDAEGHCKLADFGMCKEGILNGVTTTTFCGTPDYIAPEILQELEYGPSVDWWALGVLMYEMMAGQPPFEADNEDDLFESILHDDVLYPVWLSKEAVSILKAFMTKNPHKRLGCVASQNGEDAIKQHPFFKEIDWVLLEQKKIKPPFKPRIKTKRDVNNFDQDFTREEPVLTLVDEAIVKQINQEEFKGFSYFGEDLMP
CHEK1 (human), sequence (O14757 whole entry, looked up): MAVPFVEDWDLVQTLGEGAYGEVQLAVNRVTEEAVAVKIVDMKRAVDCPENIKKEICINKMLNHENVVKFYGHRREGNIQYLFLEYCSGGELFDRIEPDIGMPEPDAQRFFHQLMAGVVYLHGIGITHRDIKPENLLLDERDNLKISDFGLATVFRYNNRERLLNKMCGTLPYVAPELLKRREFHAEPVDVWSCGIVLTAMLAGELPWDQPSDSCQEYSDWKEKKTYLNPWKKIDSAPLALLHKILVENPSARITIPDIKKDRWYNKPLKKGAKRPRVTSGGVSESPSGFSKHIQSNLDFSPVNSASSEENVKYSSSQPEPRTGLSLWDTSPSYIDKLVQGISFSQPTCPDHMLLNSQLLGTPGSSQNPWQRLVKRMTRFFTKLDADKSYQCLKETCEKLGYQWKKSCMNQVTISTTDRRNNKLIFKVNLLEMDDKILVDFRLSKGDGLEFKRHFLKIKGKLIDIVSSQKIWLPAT
MAPKAPK3 (human), sequence (Q16644 whole entry, looked up): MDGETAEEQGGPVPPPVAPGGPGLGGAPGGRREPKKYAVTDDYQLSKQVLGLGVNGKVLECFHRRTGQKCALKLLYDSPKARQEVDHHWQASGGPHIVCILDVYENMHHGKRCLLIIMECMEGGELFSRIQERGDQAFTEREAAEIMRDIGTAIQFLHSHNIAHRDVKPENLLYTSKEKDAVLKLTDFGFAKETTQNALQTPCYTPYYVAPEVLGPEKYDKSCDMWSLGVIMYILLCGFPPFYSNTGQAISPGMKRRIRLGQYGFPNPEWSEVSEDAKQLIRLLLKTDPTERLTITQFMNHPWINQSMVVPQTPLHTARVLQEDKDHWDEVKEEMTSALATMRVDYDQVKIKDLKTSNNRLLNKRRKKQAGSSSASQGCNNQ
PAK4 (human), sequence (O96013 whole entry, looked up): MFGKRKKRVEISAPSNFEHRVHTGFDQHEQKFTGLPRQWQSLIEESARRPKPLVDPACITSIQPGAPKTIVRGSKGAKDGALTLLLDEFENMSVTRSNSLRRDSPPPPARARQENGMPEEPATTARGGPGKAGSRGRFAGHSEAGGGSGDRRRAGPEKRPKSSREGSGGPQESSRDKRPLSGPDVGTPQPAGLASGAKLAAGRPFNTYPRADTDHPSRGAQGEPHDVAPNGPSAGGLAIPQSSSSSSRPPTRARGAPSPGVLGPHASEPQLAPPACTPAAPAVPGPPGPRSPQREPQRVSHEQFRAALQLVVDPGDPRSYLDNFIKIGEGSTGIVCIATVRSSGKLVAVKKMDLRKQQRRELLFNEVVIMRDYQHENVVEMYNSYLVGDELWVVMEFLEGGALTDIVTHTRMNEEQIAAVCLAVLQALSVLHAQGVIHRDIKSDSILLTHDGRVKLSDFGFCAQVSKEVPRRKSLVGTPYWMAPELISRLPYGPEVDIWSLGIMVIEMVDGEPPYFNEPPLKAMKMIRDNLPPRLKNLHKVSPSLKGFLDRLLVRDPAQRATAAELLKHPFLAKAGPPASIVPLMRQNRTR
MAP4K4 (human), sequence (O95819 whole entry, looked up): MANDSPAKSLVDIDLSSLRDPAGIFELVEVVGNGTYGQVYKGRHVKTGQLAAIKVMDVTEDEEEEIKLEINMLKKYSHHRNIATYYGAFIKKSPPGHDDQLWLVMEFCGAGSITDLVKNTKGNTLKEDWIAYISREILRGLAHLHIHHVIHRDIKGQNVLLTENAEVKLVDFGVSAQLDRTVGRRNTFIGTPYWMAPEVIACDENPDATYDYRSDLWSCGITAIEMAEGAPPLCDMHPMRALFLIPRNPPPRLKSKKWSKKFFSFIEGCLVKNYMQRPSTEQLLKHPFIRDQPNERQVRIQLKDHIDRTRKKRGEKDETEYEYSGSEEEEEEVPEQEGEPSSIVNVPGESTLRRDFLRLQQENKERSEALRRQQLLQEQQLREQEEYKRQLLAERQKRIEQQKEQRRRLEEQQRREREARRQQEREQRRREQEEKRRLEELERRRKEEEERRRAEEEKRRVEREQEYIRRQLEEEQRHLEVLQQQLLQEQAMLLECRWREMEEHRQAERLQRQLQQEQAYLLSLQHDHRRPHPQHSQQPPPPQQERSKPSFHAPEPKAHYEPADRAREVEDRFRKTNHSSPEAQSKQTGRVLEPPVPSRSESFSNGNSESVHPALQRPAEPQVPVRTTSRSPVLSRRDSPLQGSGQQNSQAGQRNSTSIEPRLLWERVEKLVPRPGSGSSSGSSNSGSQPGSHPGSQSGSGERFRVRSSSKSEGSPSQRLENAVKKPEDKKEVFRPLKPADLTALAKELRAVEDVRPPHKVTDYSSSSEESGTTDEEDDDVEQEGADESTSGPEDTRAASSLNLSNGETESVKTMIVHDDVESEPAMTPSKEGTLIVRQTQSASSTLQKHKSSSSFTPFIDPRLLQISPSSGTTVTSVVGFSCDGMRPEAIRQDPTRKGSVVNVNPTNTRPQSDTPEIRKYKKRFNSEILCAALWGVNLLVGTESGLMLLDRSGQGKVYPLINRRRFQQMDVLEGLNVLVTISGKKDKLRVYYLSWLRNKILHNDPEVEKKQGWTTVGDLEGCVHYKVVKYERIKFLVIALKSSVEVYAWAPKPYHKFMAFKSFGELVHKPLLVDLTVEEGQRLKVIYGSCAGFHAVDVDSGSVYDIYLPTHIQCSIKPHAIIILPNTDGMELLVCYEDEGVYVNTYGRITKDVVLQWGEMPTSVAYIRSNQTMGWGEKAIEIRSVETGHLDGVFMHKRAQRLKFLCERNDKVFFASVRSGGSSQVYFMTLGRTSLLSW
MAP2K6 (human), sequence (P52564 whole entry, looked up): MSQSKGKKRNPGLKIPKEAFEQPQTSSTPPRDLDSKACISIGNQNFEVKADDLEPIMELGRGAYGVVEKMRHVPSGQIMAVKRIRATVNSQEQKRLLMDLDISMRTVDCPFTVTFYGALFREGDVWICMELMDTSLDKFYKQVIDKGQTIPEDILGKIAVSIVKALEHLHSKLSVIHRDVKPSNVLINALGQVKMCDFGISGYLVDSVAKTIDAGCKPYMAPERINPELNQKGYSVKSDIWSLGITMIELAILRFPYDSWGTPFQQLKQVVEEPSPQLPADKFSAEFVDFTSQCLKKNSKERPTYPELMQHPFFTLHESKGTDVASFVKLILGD
DAPK3 (human), sequence (O43293 whole entry, looked up): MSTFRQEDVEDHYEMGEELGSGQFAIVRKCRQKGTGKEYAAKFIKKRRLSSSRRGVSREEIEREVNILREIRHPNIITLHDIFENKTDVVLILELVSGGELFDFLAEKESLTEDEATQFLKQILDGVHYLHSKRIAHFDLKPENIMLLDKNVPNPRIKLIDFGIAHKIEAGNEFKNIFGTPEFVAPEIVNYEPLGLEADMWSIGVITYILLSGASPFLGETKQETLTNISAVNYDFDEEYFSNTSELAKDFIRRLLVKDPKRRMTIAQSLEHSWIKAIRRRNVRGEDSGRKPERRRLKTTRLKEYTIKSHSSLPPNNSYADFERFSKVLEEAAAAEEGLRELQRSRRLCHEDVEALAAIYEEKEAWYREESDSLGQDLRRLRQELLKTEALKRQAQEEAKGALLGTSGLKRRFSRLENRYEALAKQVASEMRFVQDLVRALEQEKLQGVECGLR
MAPK14 (human), sequence (Q16539 whole entry, looked up): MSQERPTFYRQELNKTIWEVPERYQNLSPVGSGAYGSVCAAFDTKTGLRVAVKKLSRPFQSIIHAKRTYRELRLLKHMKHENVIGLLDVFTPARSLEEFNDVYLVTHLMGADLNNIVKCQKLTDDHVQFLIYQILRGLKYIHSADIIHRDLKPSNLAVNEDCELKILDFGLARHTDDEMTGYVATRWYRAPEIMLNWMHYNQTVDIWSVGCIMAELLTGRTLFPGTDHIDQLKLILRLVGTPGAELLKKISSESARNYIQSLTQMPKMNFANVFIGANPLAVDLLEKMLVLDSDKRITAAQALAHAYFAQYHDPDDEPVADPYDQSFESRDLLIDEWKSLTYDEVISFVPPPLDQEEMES

Nc1cc(C(F)(F)F)c(-c2cc(N3CCOCC3)nc(N3CCOCC3)n2)cn1
inhibition (CHEK1 (human)): 3% | inhibition (ITK (human)): 3% | inhibition (MAPK14 (human)): 4% | inhibition (JAK3 JH1 JH2 (human)): 7% | inhibition (EPHA3 (human)): -2% | inhibition (CSNK2A1 (human)): 1% | inhibition (DAPK3 (human)): 1% | inhibition (AKT1 (human)): 2% | inhibition (ERBB4 (human)): 10% | inhibition (MAP4K4 (human)): 1% | inhibition (AURKB (human)): 11% | inhibition (BLK (human)): -3% | inhibition (INSR (human)): 6% | inhibition (DYRK3 (human)): 11% | inhibition (CSNK1G1 (human)): 1% | inhibition (CHEK2 (human)): 17% | inhibition (MAPKAPK3 (human)): 1% | inhibition (ROCK1 (human)): -2% | inhibition (CSNK1G2 (human)): 0% | inhibition (PRKCB1 (human)): 30% | inhibition (CAMK2A (human)): 2% | inhibition [1]: 3% | inhibition (TEK (human)): 5% | inhibition (PRKCE (human)): 2% | inhibition (CAMK1D (human)): 12% | inhibition (PAK4 (human)): -2% | inhibition (RPS6KA2 KD1 KD2 (human)): 4% | inhibition (EPHA8 (human)): 3% | inhibition (NTRK1 (human)): 9% | inhibition (FER (human)): 1% | inhibition (SRMS (human)): 13% | inhibition [2]: 11% | inhibition (RPS6KA5 KD1 KD2 (human)): 8% | inhibition (SYK (human)): 1% | inhibition (MAP2K2 (human)): 3% | inhibition (RPS6KA3 KD1 KD2 (human)): 2% | inhibition (SGK3 (human)): 20% | inhibition (PRKCB2 (human)): 8% | inhibition (MAP2K6 (human)): 6% | inhibition (CSNK1G3 (human)): -3%
